Laboratory results as given in ChEMBL document CHEMBL3832080, “DailyMed|setid=f3c5895f-f54b-43d4-9b38-7bfbdf8335b7 | CEFOTAXIME - cefotaxime injection, powder, for solution|WOCKHARDT USA LLC”.

How the values were obtained:
[1] = (§1) Pharmacokinetics parameters for Cefotaxine evaluated after single IV or intramuscular (IM) administration of Cefotaxine to normal volunteers.; type: ADME, organism-based; set-up: dose 1 g, dose 500 mg, dose 2 g, route iv, route im; settings: human, in vivo, regimen Single dose
Homo sapiens = assay: as §1; type: ADME, organism-based; set-up: dose 1 g, dose 500 mg, dose 2 g, route iv, route im; settings: in vivo, im, dose 500 mg, dosed compound id 59, dosed compound name CEFOTAXIME, regimen Single dose, tissue Serum
[2] = dose 1 g, dosed compound id 59, dosed compound name CEFOTAXIME, route im, tissue Serum

half-life ([1]; dose 50 mg/kg, dosed compound id 59, dosed compound name CEFOTAXIME, route iv, study dosing duration 10 to 15 minutes, tissue Urine): 4.6 h
Tmax [1, 2]: 0.5 h
half-life [1, 2]: 1 h
dose excreted ([1]; dosed compound id 590, dosed compound name 14C-CEFOTAXIME, route iv, tissue Urine, read-out: Excretion): 20 to 36%
Tmax (Homo sapiens): 0.5 h
t1/2 (Homo sapiens): 1 h
Structure (SMILES): CO/N=C(\C(=O)N[C@@H]1C(=O)N2C(C(=O)[O-])=C(COC(C)=O)CS[C@H]12)c1csc(N)n1.[Na+] [CEFOTAXIME SODIUM]
